Measured values as given in patent US5081107A, “Polypeptide compounds” (Imperial Chemical Industries PLC, priority 1988, dated 1992).
Non-standard residues stand in square brackets, D forms with d. Residues, ends and D or L forms follow the SMILES beside them. *: point of attachment. Isonicotinoyl = O=C(c1ccncc1)*; Cbz = O=C(OCc1ccccc1)*

Tests used:
[1] = tested on: bombesin-induced stimulation of the secretion of the enzyme amylase; details: rat, in vivo
Description: (c) An in vivo test involving the measurement of the antagonism of the bombesin-induced stimulation of the secretion of the enzyme amylase into the pancreatic duct of the rat by a test compound administered orally, sub-cutaneously or intravenously. Bombesin and the test compound can be administered concomitantly or the test compound can be predosed at any convenient interval, for example 30, 60, 90, 120, 150 or 180 minutes, before bombesin is dosed. Amylase was measured by analysis of the conversion of starch into maltose, on incubation of the starch/amylase mixture at 30° C. for 15 minutes, using a spectrophotometric assay as originally described by P. Bernfield in `Methods in Enzymology` Vol. I, p17 (Editors Colowick and Kaplan, Academic Press, New York, 1955). Bombesin (5 micrograms/kg, intravenously) causes a large, but submaximal, increase of amylase secretion within 30 minutes.

[2] = tested on: mouse Swiss 3T3-fibroblast cells; format: cell-based; details: 3 h
Description: (b) An in vitro assay which assesses the ability of a test compound to inhibit the Neuromedin C stimulated mitogenesis of mouse Swiss 3T3-fibroblast cells as determined by the uptake of [^3 H]-thymidine. The test is similar to those described by N. Corps., L. Rees and K. Brown, Biochem. Journal, 1985, 231, 781 and I. Zachary and E. Rozengurt, Proc. Nat. Acad. Sci. USA, 1985, 82, 7616, except that GRP (18-27) (0.2 or 0.4nM) was used to stimulate growth and the test compounds were dissolved in an assay medium containing 0.1% bovine serum albumin and 0.4% dimethylsulphoxide and […]

[3] = target: T1, bombesin receptor of mouse Swiss 3T3-fibroblast cells (Mus musculus, UniProt P21729); experiment: Test (a): in vitro binding assay, displacement of [I125]GRP; details: ambient temperature, 1 hour
T1 construct: the bombesin receptor of mouse Swiss 3T3-fibroblast cells; endogenous in cells; host or cells: mouse Swiss 3T3 fibroblast cells
T1 sequence (P21729 whole entry): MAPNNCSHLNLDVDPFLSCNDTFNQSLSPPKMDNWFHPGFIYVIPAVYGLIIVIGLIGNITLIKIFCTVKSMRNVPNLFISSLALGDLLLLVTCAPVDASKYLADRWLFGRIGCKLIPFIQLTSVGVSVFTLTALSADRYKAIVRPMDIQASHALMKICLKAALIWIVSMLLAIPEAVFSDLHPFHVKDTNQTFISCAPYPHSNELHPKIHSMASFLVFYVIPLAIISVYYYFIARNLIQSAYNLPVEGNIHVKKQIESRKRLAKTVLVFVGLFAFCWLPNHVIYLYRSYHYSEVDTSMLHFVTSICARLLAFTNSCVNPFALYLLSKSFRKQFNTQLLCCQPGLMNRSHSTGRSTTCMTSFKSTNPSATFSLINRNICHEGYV
Description: (a) An in vitro binding assay which assesses the ability of a test compound to displace radiolabelled gastrin releasing peptide ([I^125 ]GRP) from the bombesin receptor of mouse Swiss 3T3-fibroblast cells. The test is similar to that described by I. Zachary and E. Rozengurt, Proc. Nat. Acad. Sci. USA, 1985, 82, 7616, except that the cells are incubated at ambient temperature for 1 hour;

[4] = tested on: bombesin-induced hypothermia; details: rat; cited from earlier work
[5] = tested on: guinea pig pancreatic acini; details: cited from earlier work

Compound | IC50 in test (c) [1] [mg/kg] | IC50 [2] [nM] | inhibition of bombesin-stimulated secretion of amylase [5] | further results
COC(=O)[C@H](CC(C)C)NC(=O)[C@H](Cc1c[nH]cn1)NC(=O)[C@@H](C)NC(=O)[C@@H](NC(=O)[C@H](C)NC(=O)[C@H](Cc1c[nH]c2ccccc12)NC(=O)[C@H](Cc1c[nH]cn1)NC(=O)c1ccncc1)C(C)C [4-Pyridyl--CO--His--Trp--Ala--Val--D--Ala--His--Leu--OMe] (Isonicotinoyl-HWAV[dA]HL-OMe) | < 0.5 | 0.7 |  | IC50 [3]: 1.5 nM
CNC(=O)[C@H](CC(C)C)NC(=O)[C@H](CCCCNC(=O)OCc1ccccc1)NC(=O)[C@@H](C)NC(=O)[C@@H](NC(=O)[C@H](C)NC(=O)[C@H](Cc1c[nH]c2ccccc12)NC(=O)[C@H](Cc1c[nH]cn1)NC(=O)c1ccncc1)C(C)C [4-Pyridyl-CO--His--Trp--Ala--Val--D-Ala--Lys(Z)--Leu--NHMe] (Isonicotinoyl-HWAV[dA]K(Cbz)L-NHMe) | < 0.02 | 0.2 |  | 
[D--Glp^7, D--Ala^11, Ala^14 ]bombesin (7-14) |  |  |  | antagonism of bombesin-induced hypothermia [4]: partial antagonist
[D--Phe^12, Leu^14 ]bombesin |  |  | inhibited | 
[D-Phe^12 ]bombesin |  |  | inhibited | 
[Tyr^4, D--Phe^12 ]bombesin |  |  | inhibited | 
